Laboratory results reported in US20260234123A1, “Inhibitors of NLRP3” (Mwyngil Therapeutics, Inc., priority 2023, published 2026).
Read-outs that look alike come from different tables or passages of the source.

Test system: IL1b release THP-1
Assay: IL1b release THP-1 (ELISA)
Type: cell-based
Conditions: Homo sapiens
Experimental: Example A. Primary Assays Used to Determine IL1b Release THP-1 (ELISA)
• Microbiological safety cabinet, classII (NuAire, USA) • CO2 incubator (VWR Science, USA) • Countess Automated Cell Counter (Invitrogen, USA, cat. number C10227) • Centrifuge CM 6M (Elmi, Latvia) • Serological pipettes 2, 5, 10, 25, 50, 100 ml sterile (Santa Cruz Biotechnology, Inc., USA, sc-200277, sc-200279, sc-200281, sc-200283, Sc-213234, sc-516777) • Single and multichannel pipettes 0.2-10 μL, 50-1200 μL (Eppendorf AG-Hamburg, Germany) • 50 mL PP sterile tubes (Greiner, cat. Number 210261).
• RPMI-1640 (PanEco, C330) • Sodium pyruvate (Paneco, cat. number Φ023) • Non-Essential amino acids 50× (Paneco, Φ116) • Essential amino acids 50× (Paneco, Φ115/50) • FBS (Hyclone Laboratories Inc, USA, SV30160.03) • Antibiotic-antimycotic (Gibco, USA, 15240-062) • 2-mercaptoethanol 1000×55 mM (Gibco, USA, 21985-023) • LPS-EB ultrapure (invivogen, cat. number tlrl-3pelps) • Nigericin (Sigma, cat. number N7143) • ELISA kit, IL-1beta (Cat #A-8766, Interleukin-1 beta-EIA-BEST, Vector Best). LPS Preparation (5 mg/ml): • 1. Add 1 ml of endotoxin-free water according manufacturer's protocol • 2. Vortex until complete solubilization • 3. Aliquote and store at […] for long term storage.
• 1. Add methanol to 10 mg of powder to produce the 10 mM Nigericin solution • 2. Vortex until complete solubilization • 3. Store at 4° C.
THP-1 cells were propagated in RPMI-1640 (10% FBS, Antibiotic-antimycotic 1×, non-Essential amino acids 1×, Essential amino acids 1×, Sodium pyruvate 2×, 2-mercaptoethanol 0.05 mM) at 37° C. and at 5% CO2 in an incubator.
• 1. THP-1 cells were spined at 100 g for 5 min in 50 ml tube. • 2. THP-1 cells were resuspended in warm culture medium (w/o FBS, w/o Antibiotic-antimycotic, non-Essential amino acids 1×, Essential amino acids 1×, Sodium pyruvate 2×) to the concentration 1,3×10^6 cells. • 3. THP-1 cells were primed in tube with 1 μg/ml of LPS for 4 h at 37° C. and at 5% CO2 in an incubator. • 4. THP-1 cells were stimulated with 10 μM of Nigericin (Cat #N7143-10 MG, Sigma Aldrich) for 2 h at 37° C. and at 5% CO2 in an incubator. • 5. After the full activation, the supernatant was collected and the levels of IL-1β were assessed via ELISA according manufacturer instructions (Cat #A-8766, Vector Best).
The average EC50 values are shown in Table A, wherein “A” corresponds to EC50: A≤0.5 μM, “B” corresponds to 0.5 μM<EC50≤1.0 μM, “C” 1.0 μM<EC50≤5.0 μM, “D” corresponds to 5.0 μM<EC50≤30 μM and “E” corresponds to EC50>30 μM.

[1] = THP-1, read-out: THP 1 IL 1b, EC50, μM
[2] = average EC50, THP-1 cells primed with 1 μg/ml LPS 4 h, stimulated with 10 μM Nigericin 2 h, IL-1β in supernatant by ELISA, read-out: THP 1 IL 1b, EC50

Structure (SMILES) | EC50 [2] [µM] | EC50 [1] [µM]
Cc1cc(-c2ccc(C(F)(F)F)cc2NS(C)(=O)=O)nnc1N[C@@H]1CCCN(C2CCCCC2)C1 [Compound 32, (R)—N-(2-(6-((1-Cyclohexylpiperidin-3-yl)amino)-5-methylpyridazin-3-yl)-5-(trifluoromethyl)phenyl) methanesulfonamide] |  | < 0.5
Cc1cc(N[C@@H]2CCCN(C3CCC3)C2)nnc1-c1ccc(C(F)(F)F)cc1NS(C)(=O)=O [Compound 34] | < 0.5 | 
CCC(C)N1CCC[C@@H](Nc2cc(C)c(-c3ccc(C(F)(F)F)cc3NS(C)(=O)=O)nn2)C1 (stereo partly drawn) [Compound 35, N-(2-(6-(((3R)-1-(sec-Butyl)piperidin-3-yl)amino)-4-methylpyridazin-3-yl)-5-(trifluoromethyl)phenyl) methanesulfonamide] |  | < 0.5
Cc1cc(N[C@@H]2CCCN(C3CC3)C2)nnc1-c1ccc(C(F)(F)F)cc1NS(C)(=O)=O [Compound 36, N-[2-[6-[[(3R)-1-cyclopropyl-3-piperidyl]amino]-4-methyl-pyridazin-3-yl]-5-(trifluoromethyl)phenyl]methanesulfon-amide] | < 0.5 | 
CCN1CCC[C@@H](Nc2nnc(-c3ccc(C(F)(F)F)cc3NS(C)(=O)=O)c3c2CCCC3)C1 [Compound 37, (R)—N-(2-(4-((1-Ethylpiperidin-3-yl)amino)-5,6,7,8-tetrahydrophthalazin-1-yl)-5-(trifluoromethyl)phenyl) methane sulfonamide] | < 0.5 | 
Cc1cc(-c2ccc(C(F)(F)F)cc2NS(C)(=O)=O)nnc1N[C@@H]1CCCN(C2CCOCC2)C1 [Compound 38, (R)—N-(2-(5-Methyl-6-((1-(tetrahydro-2H-pyran-4-yl)piperidin-3-yl)amino)pyridazin-3-yl)-5-(trifluoromethyl)phenyl) methanesulfonamide] | < 0.5 | 
Cc1cc(N[C@@H]2CCCN(CC3CCCCC3)C2)nnc1-c1ccc(C(F)(F)F)cc1NS(C)(=O)=O [Compound 40, N-[2-[6-[[(3R)-1-(cyclohexylmethyl)-3-piperidyl]amino]-4-methyl-pyridazin-3-yl]-5-(trifluoromethyl)phenyl]methanesulfon-amide] | < 0.5 | 
CCN1CCC[C@@H](Nc2nnc(-c3ccc(C(F)(F)F)cc3NS(C)(=O)=O)cc2C(F)(F)F)C1 [Compound 45, N-[2-[6-[[(3R)-1-ethyl-3-piperidyl]amino]-5-(trifluoromethyl)pyridazin-3-yl]-5-(trifluoromethyl)phenyl]methanesulfon-amide] | 0.5 to 1 | 
CC(C)=CCN1CCC[C@@H](Nc2cc(C)c(-c3ccc(C(F)(F)F)cc3NS(C)(=O)=O)nn2)C1 [Compound 48, (R)—N-(2-(4-Methyl-6-((1-(3-methylbut-2-en-1-yl)piperidin-3-yl)amino)pyridazin-3-yl)-5-(trifluoromethyl)phenyl) methanesulfonamide] | 0.5 to 1 | 
CN1CCC[C@@H](Nc2nnc(-c3ccc(C(F)(F)F)cc3NS(C)(=O)=O)c3c2C2CCC3CC2)C1 [Compound 54, N-[2-[6-[[(3R)-1-methyl-3-piperidyl]amino]-4,5-diazatricyclo[6.2.2.02,7]dodeca-2(7),3,5-trien-3-yl]-5-(trifluoromethyl)phenyl]methanesulfon-amide] | 5 to 30 | 
Cc1cc(N[C@@H]2CCCN(CCC(C)(C)O)C2)nnc1-c1ccc(C(F)(F)F)cc1NS(C)(=O)=O [Compound 55, (R)—N-(2-(6-((1-(3-Hydroxy-3-methylbutyl)piperidin-3-yl)amino)-4-methylpyridazin-3-yl)-5-(trifluoromethyl)phenyl) methanesulfonamide] | 1 to 5 | 
COCCN1CCC[C@@H](Nc2cc(C)c(-c3ccc(C(F)(F)F)cc3NS(C)(=O)=O)nn2)C1 [Compound 56, (R)—N-(2-(6-((1-(2-Methoxyethyl)piperidin-3-yl)amino)-4-methylpyridazin-3-yl)-5-(trifluoromethyl)phenyl) methanesulfonamide] | 1 to 5 | 
CCN1CCC[C@@H](Nc2nnc(-c3ccc(C(F)(F)F)cc3NS(=O)(=O)CC)cc2C)C1 [Compound 62, (R)—N-(2-(6-((1-Ethylpiperidin-3-yl)amino)-5-methylpyridazin-3-yl)-5-(trifluoromethyl)phenyl) ethanesulfonamide] | < 0.5 | 

Now from value to compound, other results behind:

EC50 [2] [µM] | Structure (SMILES) | EC50 [1] [µM]
< 0.5 | Cc1cc(N[C@@H]2CCCN(C3CCCC3)C2)nnc1-c1ccc(C(F)(F)F)cc1NS(C)(=O)=O [Compound 33] | 
< 0.5 | Cc1cc(N[C@@H]2CCCN(C3CCOCC3)C2)nnc1-c1ccc(C(F)(F)F)cc1NS(C)(=O)=O [Compound 39] | 
< 0.5 | Cc1cc(N[C@@H]2CCCN(C3CCCCC3)C2)nnc1-c1ccc(C(F)(F)F)cc1NS(C)(=O)=O [Compound 41, N-[2-[6-[[(3R)-1-cyclohexyl-3-piperidyl]amino]-4-methyl-pyridazin-3-yl]-5-(trifluoromethyl)phenyl]methanesulfon-amide] | 
< 0.5 | Cc1cc(-c2ccc(C(F)(F)F)cc2NS(C)(=O)=O)nnc1N[C@@H]1CCCN(C2CC2)C1 [Compound 42, (R)—N-(2-(6-((1-Cyclopropylpiperidin-3-yl)amino)-5-methylpyridazin-3-yl)-5-(trifluoromethyl)phenyl) methanesulfonamide] | 
< 0.5 | CCN1CCC[C@@H](Nc2cc(C3CC3)c(-c3ccc(C(F)(F)F)cc3NS(C)(=O)=O)nn2)C1 [Compound 43, (R)—N-(2-(4-Cyclopropyl-6-((1-ethylpiperidin-3-yl)amino)pyridazin-3-yl)-5-(trifluoromethyl)phenyl) methanesulfonamide] | 
0.5 to 1 | Cc1cc(N[C@@H]2CCCN(Cc3ccccc3)C2)nnc1-c1ccc(C(F)(F)F)cc1NS(C)(=O)=O [Compound 44, N-[2-[6-[[(3R)-1-benzyl-3-piperidyl]amino]-4-methyl-pyridazin-3-yl]-5-(trifluoromethyl)phenyl]methanesulfon-amide] | 
0.5 to 1 | Cc1cc(N[C@@H]2CCCN(CC(C)C)C2)nnc1-c1ccc(C(F)(F)F)cc1NS(C)(=O)=O [Compound 46, (R)—N-(2-(6-((1-Isobutylpiperidin-3-yl)amino)-4-methylpyridazin-3-yl)-5-(trifluoromethyl)phenyl) methanesulfonamide] | 
0.5 to 1 | Cc1cc(N[C@@H]2CCCN(CC(C)(C)O)C2)nnc1-c1ccc(C(F)(F)F)cc1NS(C)(=O)=O [Compound 47] | 
1 to 5 | CCN1CCC[C@@H](Nc2cc(C(F)(F)F)c(-c3ccc(C(F)(F)F)cc3NS(C)(=O)=O)nn2)C1 [Compound 49, N-[2-[6-[[(3R)-1-ethyl-3-piperidyl]amino]-4-(trifluoromethyl)pyridazin-3-yl]-5-(trifluoromethyl)phenyl]methanesulfon-amide] | 
1 to 5 | CN1CCC[C@@H](Nc2nnc(-c3ccc(C(F)(F)F)cc3NS(C)(=O)=O)c3c2CCCC3)C1 [Compound 50, (R)—N-(2-(4-((1-Methylpiperidin-3-yl)amino)-5,6,7,8-tetrahydrophthalazin-1-yl)-5-(trifluoromethyl)phenyl) methane sulfonamide] | 
1 to 5 | CN1CCC[C@@H](Nc2cc(C(F)(F)F)c(-c3ccc(C(F)(F)F)cc3NS(C)(=O)=O)nn2)C1 [Compound 51, N-[2-[6-[[(3R)-1-methyl-3-piperidyl]amino]-4-(trifluoromethyl)pyridazin-3-yl]-5-(trifluoromethyl)phenyl]methanesulfon-amide] | 
1 to 5 | CN1CCC[C@@H](Nc2nnc(-c3ccc(C(F)(F)F)cc3NS(C)(=O)=O)cc2C(F)(F)F)C1 [Compound 52, N-[2-[6-[[(3R)-1-methyl-3-piperidyl]amino]-5-(trifluoromethyl)pyridazin-3-yl]-5-(trifluoromethyl)phenyl]methanesulfon-amide] | 
1 to 5 | COC(C)(C)CCN1CCC[C@@H](Nc2cc(C)c(-c3ccc(C(F)(F)F)cc3NS(C)(=O)=O)nn2)C1 [Compound 53, N-[2-[6-[[(3R)-1-(3-methoxy-3-methyl-butyl)-3-piperidyl]amino]-4-methyl-pyridazin-3-yl]-5-(trifluoromethyl)phenyl]methanesulfon-amide] | 
